PubChem BioAssay (NCI)
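The compound was tested at five concentrations on cells cultured in 96-well plates, with a 48-hour exposure period. GI50 = concentration required for 50% inhibition of growth. TGI denotes the concentration required for complete inhibition of growth.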

Experiments:
Assay in all cases: NCI tumour cell line growth inhibition, 48 h
U251 CNS = system: U251 CNS
HS 578T breast = system: HS 578T breast
MOLT-4 leukemia = system: MOLT-4 leukemia
SF-268 CNS = system: SF-268 CNS
MDA-MB-231 breast = system: MDA-MB-231 breast
DU-145 prostate = system: DU-145 prostate
CAKI-1 renal = system: CAKI-1 renal
786-0 renal = system: 786-0 renal
OVCAR-3 ovarian = system: OVCAR-3 ovarian
SK-MEL-2 melanoma = system: SK-MEL-2 melanoma
A498 renal = system: A498 renal
SW-620 colon = system: SW-620 colon
MALME-3M melanoma = system: MALME-3M melanoma
CCRF-CEM leukemia = system: CCRF-CEM leukemia
NCI-H226 lung = system: NCI-H226 lung
T-47D breast = system: T-47D breast
OVCAR-8 ovarian = system: OVCAR-8 ovarian
KM12 colon = system: KM12 colon
SF-295 CNS = system: SF-295 CNS
EKVX NSCLC = system: EKVX NSCLC
OVCAR-4 ovarian = system: OVCAR-4 ovarian
NCI/ADR-RES ovarian = system: NCI/ADR-RES ovarian
HCT-15 colon = system: HCT-15 colon
UACC-257 melanoma = system: UACC-257 melanoma
TK-10 renal = system: TK-10 renal
HT29 colon = system: HT29 colon
RXF 393 renal = system: RXF 393 renal
SNB-75 CNS = system: SNB-75 CNS
NCI-H522 lung = system: NCI-H522 lung
PC-3 prostate = system: PC-3 prostate
SR leukemia = system: SR leukemia
SF-539 CNS = system: SF-539 CNS
MDA-MB-468 breast = system: MDA-MB-468 breast
UACC-62 melanoma = system: UACC-62 melanoma
SN12C renal = system: SN12C renal
HOP-92 NSCLC = system: HOP-92 NSCLC
NCI-H460 lung = system: NCI-H460 lung
UO-31 renal = system: UO-31 renal
OVCAR-5 ovarian = system: OVCAR-5 ovarian
MDA-MB-435 = system: MDA-MB-435
RPMI-8226 leukemia = system: RPMI-8226 leukemia
LOX IMVI melanoma = system: LOX IMVI melanoma
SK-MEL-5 melanoma = system: SK-MEL-5 melanoma
K-562 leukemia = system: K-562 leukemia
SK-OV-3 ovarian = system: SK-OV-3 ovarian
HCT-116 colon = system: HCT-116 colon
MCF7 breast = system: MCF7 breast
HOP-62 NSCLC = system: HOP-62 NSCLC
HL-60(TB) leukemia = system: HL-60(TB) leukemia
M14 melanoma = system: M14 melanoma
SK-MEL-28 melanoma = system: SK-MEL-28 melanoma
SNB-19 CNS = system: SNB-19 CNS
BT-549 breast = system: BT-549 breast
IGROV1 ovarian = system: IGROV1 ovarian
COLO 205 colon = system: COLO 205 colon
HCC-2998 colon = system: HCC-2998 colon
NCI-H23 lung = system: NCI-H23 lung
A549 NSCLC = system: A549 NSCLC
ACHN renal = system: ACHN renal

SMILES: COc1cccc(/C=C/c2nc3ccccc3c(=O)n2CC(=O)Nc2ccccc2)c1
- GI50 (U251 CNS): 4.87 µM
- TGI (U251 CNS): 19 µM
- GI50 (HS 578T breast): 5.91 µM
- TGI (HS 578T breast): > 100 µM
- GI50 (MOLT-4 leukemia): > 100 µM
- TGI (MOLT-4 leukemia): > 100 µM
- GI50 (SF-268 CNS): 36.8 µM
- TGI (SF-268 CNS): > 100 µM
- GI50 (MDA-MB-231 breast): 5.97 µM
- TGI (MDA-MB-231 breast): 20.7 µM
- GI50 (DU-145 prostate): > 100 µM
- TGI (DU-145 prostate): > 100 µM
- GI50 (CAKI-1 renal): 4.31 µM
- TGI (CAKI-1 renal): 30.1 µM
- GI50 (786-0 renal): 3.08 µM
- TGI (786-0 renal): 12.6 µM
- GI50 (OVCAR-3 ovarian): 17.6 µM
- TGI (OVCAR-3 ovarian): > 100 µM
- GI50 (SK-MEL-2 melanoma): > 100 µM
- TGI (SK-MEL-2 melanoma): > 100 µM
- GI50 (A498 renal): 3.2 µM
- TGI (A498 renal): 14.5 µM
- GI50 (SW-620 colon): > 100 µM
- TGI (SW-620 colon): > 100 µM
- GI50 (MALME-3M melanoma): 12.1 µM
- TGI (MALME-3M melanoma): 65.7 µM
- GI50 (CCRF-CEM leukemia): > 100 µM
- TGI (CCRF-CEM leukemia): > 100 µM
- GI50 (NCI-H226 lung): 3.22 µM
- TGI (NCI-H226 lung): 15.2 µM
- GI50 (T-47D breast): 2.76 µM
- TGI (T-47D breast): 18.6 µM
- GI50 (OVCAR-8 ovarian): 18.8 µM
- TGI (OVCAR-8 ovarian): > 100 µM
- GI50 (KM12 colon): > 100 µM
- TGI (KM12 colon): > 100 µM
- GI50 (SF-295 CNS): 5.23 µM
- TGI (SF-295 CNS): 28.6 µM
- GI50 (EKVX NSCLC): > 100 µM
- TGI (EKVX NSCLC): > 100 µM
- GI50 (OVCAR-4 ovarian): 6.87 µM
- TGI (OVCAR-4 ovarian): > 100 µM
- GI50 (NCI/ADR-RES ovarian): 7.72 µM
- TGI (NCI/ADR-RES ovarian): 64.9 µM
- GI50 (HCT-15 colon): 39.9 µM
- TGI (HCT-15 colon): > 100 µM
- GI50 (UACC-257 melanoma): > 100 µM
- TGI (UACC-257 melanoma): > 100 µM
- GI50 (TK-10 renal): 9.51 µM
- TGI (TK-10 renal): 30 µM
- GI50 (HT29 colon): > 100 µM
- TGI (HT29 colon): > 100 µM
- GI50 (RXF 393 renal): 4.23 µM
- TGI (RXF 393 renal): 50.9 µM
- GI50 (SNB-75 CNS): 3.15 µM
- TGI (SNB-75 CNS): 18.1 µM
- GI50 (NCI-H522 lung): 31.6 µM
- TGI (NCI-H522 lung): > 100 µM
- GI50 (PC-3 prostate): > 100 µM
- TGI (PC-3 prostate): > 100 µM
- GI50 (SR leukemia): > 100 µM
- TGI (SR leukemia): > 100 µM
- GI50 (SF-539 CNS): 7.51 µM
- TGI (SF-539 CNS): 28.5 µM
- GI50 (MDA-MB-468 breast): 9.17 µM
- TGI (MDA-MB-468 breast): > 100 µM
- GI50 (UACC-62 melanoma): 88.5 µM
- TGI (UACC-62 melanoma): > 100 µM
- GI50 (SN12C renal): 6.58 µM
- TGI (SN12C renal): > 100 µM
- GI50 (HOP-92 NSCLC): 11 µM
- TGI (HOP-92 NSCLC): 51.3 µM
- GI50 (NCI-H460 lung): 12.6 µM
- TGI (NCI-H460 lung): > 100 µM
- GI50 (UO-31 renal): 2.89 µM
- TGI (UO-31 renal): 14.1 µM
- GI50 (OVCAR-5 ovarian): 19.3 µM
- TGI (OVCAR-5 ovarian): > 100 µM
- GI50 (MDA-MB-435): > 100 µM
- TGI (MDA-MB-435): > 100 µM
- GI50 (RPMI-8226 leukemia): > 100 µM
- TGI (RPMI-8226 leukemia): > 100 µM
- GI50 (LOX IMVI melanoma): 5.94 µM
- TGI (LOX IMVI melanoma): > 100 µM
- GI50 (SK-MEL-5 melanoma): 59.3 µM
- TGI (SK-MEL-5 melanoma): > 100 µM
- GI50 (K-562 leukemia): > 100 µM
- TGI (K-562 leukemia): > 100 µM
- GI50 (SK-OV-3 ovarian): 5.87 µM
- TGI (SK-OV-3 ovarian): 40.9 µM
- GI50 (HCT-116 colon): 5.48 µM
- TGI (HCT-116 colon): 56 µM
- GI50 (MCF7 breast): 27 µM
- TGI (MCF7 breast): > 100 µM
- GI50 (HOP-62 NSCLC): 3.89 µM
- TGI (HOP-62 NSCLC): 14.4 µM
- GI50 (HL-60(TB) leukemia): > 100 µM
- TGI (HL-60(TB) leukemia): > 100 µM
- GI50 (M14 melanoma): 12.5 µM
- TGI (M14 melanoma): 56.6 µM
- GI50 (SK-MEL-28 melanoma): 61.4 µM
- TGI (SK-MEL-28 melanoma): > 100 µM
- GI50 (SNB-19 CNS): 21.7 µM
- TGI (SNB-19 CNS): > 100 µM
- GI50 (BT-549 breast): > 100 µM
- TGI (BT-549 breast): > 100 µM
- GI50 (IGROV1 ovarian): 39.1 µM
- TGI (IGROV1 ovarian): > 100 µM
- GI50 (COLO 205 colon): > 100 µM
- TGI (COLO 205 colon): > 100 µM
- GI50 (HCC-2998 colon): > 100 µM
- TGI (HCC-2998 colon): > 100 µM
- GI50 (NCI-H23 lung): 8.91 µM
- TGI (NCI-H23 lung): 49.3 µM
- GI50 (A549 NSCLC): 3.81 µM
- TGI (A549 NSCLC): > 100 µM
- GI50 (ACHN renal): 3.47 µM
- TGI (ACHN renal): 12.5 µM
